Key:
[1] = tested on: human trabecular meshwork cell line (TM-1 cells); experiment: Test for evaluation of effect of morphological change on trabecular meshwork cells (cell shape index, CSI); assay type: cell-based; details: final concentration 10 μM, incubation 24 hours, CSI=4π×(Cell Area)/(Cell Perimeter)^2, average per group, Control 0.730
Procedure: 1. Test for Evaluation of Effect of Morphological Change on Trabecular Meshwork Cells
As a method for evaluating a cellular morphological change, an evaluation system using the cell shape index (hereinafter referred to as “CSI”) as an index has been reported in The Journal of Clinical Investigation, 103, 1141-1150 (1999). Therefore, according to the method described in the above document, an effect of morphological change of the present compounds on trabecular meshwork cells was evaluated.
A human trabecular meshwork cell line (hereinafter referred to as “TM-1 cells”) reported in Investigative Opthalmology & Visual Science, 43, 151-161 (2002) was used.
Culture medium 1: A reagent was prepared by adding fetal bovine serum (10%), L-glutamine (2 mM), amphotericin B (2.5 μg/mL), and gentamicin (25 μg/mL) to Dulbecco's modified Eagle medium (hereinafter referred to as “D-MEM”).
Culture medium 2: Fetal bovine serum (3%), L-glutamine (2 mM), amphotericin B (2.5 μg/mL), and gentamicin (25 μg/mL) were added to D-MEM.
Cell staining liquid: A mixed liquid of Calcein-AM (16 μM) and Hoechst 33342 (40 μM) was prepared by diluting a Calcein-AM solution (cytoplasmic staining reagent, manufactured by Dojindo Laboratories) and a Hoechst 33342 solution (nuclear staining reagent, manufactured by Dojindo Laboratories) with D-MEM containing L-glutamine (2 mM), amphotericin B (2.5 μg/mL), and gentamicin (25 μg/mL).
TM-1 cells subcultured at 37° C. in a 8% carbon dioxide gas atmosphere were treated with a trypsin/EDTA solution (0.05% trypsin and 0.53 mM tetrasodium ethylenediaminetetraacetate) at 24 hours before performing a drug treatment mentioned below and seeded on a 96-well culture plate. The culture medium 1 was used for the subculture of the cells. The culture medium 2 was used for the cell culture after seeding the cells on the plate.
A test compound was dissolved in dimethyl sulfoxide, whereby a 5 mM solution was prepared. Then, the resulting solution was diluted with the culture medium 2, whereby a 200 μM test compound solution was prepared.
It has been reported that Y-27632 which is a Rho kinase inhibitor induces a morphological change in trabecular meshwork cells in Investigative Ophthalmology & Visual Science, 42, 137-144 (2001). Therefore, Y-27632 (produced according to the method described in WO 90/05723) was used as a positive control, and dissolved in dimethyl sulfoxide in the same manner as the test compound, whereby a 5 mM solution was prepared, and then, the resulting solution was diluted with the culture medium 2, whereby a 200 μM positive control compound solution was prepared.
1) To a 96-well culture plate, a solution of TM-1 cells adjusted to a cell density of […] was added in an amount of 95 μL (1.5×10^4 cells) per well.
2) Incubation was performed at 37° C. in a 8% carbon dioxide gas atmosphere for 24 hours.
3) The test compound solution or positive control compound solution was added in an amount of 5 μL per well (the final concentration of the test compound or positive control compound was 10 μM). As a control, the culture medium 2 containing dimethyl sulfoxide (4%) was added in an amount of 5 μL per well.
4) Incubation was performed at 37° C. in a 8% carbon dioxide gas atmosphere for 24 hours.
5) The cell staining liquid was added in an amount of 10 μL per well.
6) Incubation was performed at 37° C. in a 8% carbon dioxide gas atmosphere for 1 hour to stain the cells.
7) A 37% formaldehyde solution was added in an amount of 10 μL per well.
8) Incubation was performed at room temperature for 1 hour to fix the cells.
9) Washing with phosphate-buffered saline was performed.
10) Using Array Scan Vti HCS reader (manufactured by Cellomics), images of stained cells magnified with a 20 times objective lens were captured in 80 fields (10 fields×8 wells) per test compound addition group.
11) CSI was calculated for each cell and an average value was obtained for each test compound addition group. […]

[2] = tested on: male Japanese White rabbits; experiment: Test for evaluation of intraocular pressure-lowering effect (intracameral administration); assay type: in vivo; details: 20 μL of 1 mM administration liquid to one eye, at 9 hours after administering, versus vehicle control group, 6 cases per group
Procedure: 2. Test for Evaluation of Intraocular Pressure-Lowering Effect
In order to evaluate an intraocular pressure-lowering effect of the present compounds, a test for evaluation of intraocular pressure-lowering effect of intracameral administration of a drug using male Japanese White rabbits was performed.
A test compound was dissolved or suspended in physiological saline containing 0.5% dimethyl sulfoxide, whereby a 1 mM test compound administration liquid was prepared.
One drop of 0.4% oxybuprocaine hydrochloride eye drop was instilled into both eyes of each male Japanese White rabbit to achieve local anesthesia, and thereafter, the intraocular pressure was measured using an applanation tonometer. Then, by using a syringe fitted with a 30-gauge needle, the test compound administration liquid (20 μL) was intracamerally administered to one eye. As a control, 20 μL of the vehicle (physiological saline containing 0.5% dimethyl sulfoxide) for the test compound was intracamerally administered. After the lapse of a certain period of time from the administration of the test compound or vehicle, one drop of 0.4% oxybuprocaine hydrochloride eye drop was instilled into the administered eye to achieve local anesthesia, and thereafter, the intraocular pressure was measured using an applanation tonometer.
The intraocular pressure-lowering effect of each test compound was evaluated by calculating an intraocular pressure reduction rate. The intraocular pressure reduction rate (%) was calculated using the following equation. (Intraocular Pressure Reduction rate(%))=100×(Average Value of Intraocular Pressure of Control Group)−(Average Value of Intraocular Pressure of Each Test Compound Administration Group)/(Average Value of Intraocular Pressure of Control Group) (Test Results)
As an example of the test results, the intraocular pressure reduction rates of the respective test compound administration groups at 9 hours after administering the respective test compounds (Compound 1-59, Compound 1-80, and Compound 2-2) are shown in Table II (one group consisting of 6 cases).

| Structure (SMILES) | CSI [1] | Intraocular Pressure Reduction Rate (%) [2] |
| --- | --- | --- |
| CN(C)CCCN(Cc1ccc(C(=O)Nc2ccccc2N)cc1)C(=O)Nc1ccc(F)c(F)c1 [Compound 2-2, N-(2-Aminophenyl)-4-[3-(3,4-difluorophenyl)-1-(3-dimethylaminopropyl)ureidomethyl]benzamide] | 0.585 | 13% |
| Nc1ccccc1NC(=O)c1ccc(CN(CCCN2CCOCC2)C(=O)NCCc2ccc3c(c2)OCO3)cc1 [Compound 1-59, N-(2-Aminophenyl)-4-[3-[2-(benzo[1,3]dioxol-5-yl)ethyl]-1-[3-(morpholin-4-yl)propyl]ureidomethyl]benz-amide] | 0.571 | 19% |
| CN(C)CCN(Cc1ccc(C(=O)Nc2ccccc2N)cc1)C(=O)Nc1ccc2c(c1)OCCO2 [Compound 1-80, N-(2-Aminophenyl)-4-[3-(2,3-dihydrobenzo[1,4]dioxin-6-yl)-1-(2-dimethylamino-ethyl)ureidomethyl]benzamide] | 0.543 | 18% |
